For data set [1], the target named is T1, C-X-C chemokine receptor type 4 (Homo sapiens, UniProt P61073). The data set is described as follows: Agonist activity at CXCR4 in human CCRF-CEM cells measured for 90 secs by calcium flux assay. In kind it is functional, cell-based. In general terms: Calcium flux is commonly read through the fluorescence of an indicator in the cells.
The target of data set [2] is T2, Alpha-2A adrenergic receptor (Homo sapiens, UniProt P08913).
T2 sequence (P08913 whole entry): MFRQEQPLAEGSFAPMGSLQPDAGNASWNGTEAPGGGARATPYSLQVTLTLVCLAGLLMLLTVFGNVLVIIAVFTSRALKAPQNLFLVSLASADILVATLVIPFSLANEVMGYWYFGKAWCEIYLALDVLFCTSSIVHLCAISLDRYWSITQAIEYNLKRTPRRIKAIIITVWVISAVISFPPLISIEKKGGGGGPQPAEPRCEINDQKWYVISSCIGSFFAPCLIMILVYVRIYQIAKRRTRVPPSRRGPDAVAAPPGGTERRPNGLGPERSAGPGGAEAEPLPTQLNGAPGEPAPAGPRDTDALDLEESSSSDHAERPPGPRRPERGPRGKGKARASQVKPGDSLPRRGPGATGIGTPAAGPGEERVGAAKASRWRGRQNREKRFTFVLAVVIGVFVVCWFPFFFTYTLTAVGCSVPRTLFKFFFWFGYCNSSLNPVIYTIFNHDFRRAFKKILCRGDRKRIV
Description: Inhibition of adrenergic alpha2A receptor (unknown origin).

The target of the next data set is Mu-type opioid receptor (Homo sapiens, UniProt P35372). Description: Inhibition of mu opioid receptor (unknown origin).
The target of data set [3] is Acetylcholine receptor subunit alpha (Homo sapiens, UniProt P02708). The data set is described as follows: Inhibition of nAChR alpha1 (unknown origin).
Another data set has as its target Acetylcholinesterase (Homo sapiens, UniProt P22303). The data set is described as follows: Inhibition of AChE (unknown origin).
The nature of data set [4]: Stability in human liver microsomes assessed as parent compound remaining at 0.5 uM after 10 mins by LC-MS analysis.
Data set [5] has as its target T1, C-X-C chemokine receptor type 4. Description: Antagonist activity at CXCR4 in human CCRF-CEM cells assessed as inhibition of […]-induced calcium flux pretreated for 25 mins followed by […] addition measured for 90 secs by calcium-dye based assay. The format is functional, cell-based.
Data set [6] concerns the target Muscarinic acetylcholine receptor. Description: Antagonist activity at mAChR in human CCRF-CEM cells assessed as inhibition of acetylcholine-induced calcium flux pretreated for 25 mins followed by acetylcholine addition measured for 90 secs by calcium-dye based assay. In kind it is functional, cell-based.
Data set [7] is described as follows: Stability in rat liver microsomes assessed as parent compound remaining at 0.5 uM after 10 mins by LC-MS analysis.
The nature of data set [8]: Stability in mouse liver microsomes assessed as parent compound remaining at 0.5 uM after 10 mins by LC-MS analysis. (Liver microsomes are vesicles of endoplasmic reticulum, rich in cytochrome P450 enzymes.)
Another data set has as its target Cytochrome P450 3A4 (Homo sapiens, UniProt P08684). Description: Inhibition of CYP3A4 (unknown origin). In kind it is ADME.
The species named for data set [9] is Homo sapiens. Description: Therapeutic index, ratio of IC50 for AChE (unknown origin) to IC50 for CXCR4 in human CCRF-CEM cells. The format is cell-based.
The next data set deals with Cytochrome P450 2D6 (Homo sapiens, UniProt P10635).
The nature of a further data set: in vitro. The following applies: PAMPA, pH 7.4. A general note: PAMPA measures passive passage across an artificial lipid membrane.
The species entered for data set [10] is Homo sapiens. Description: Therapeutic index, ratio of IC50 for adrenergic alpha2A receptor (unknown origin) to IC50 for CXCR4 in human CCRF-CEM cells. The format is cell-based.
For data set [11], the species on record is Homo sapiens. Description: Therapeutic index, ratio of IC50 for mu opioid receptor (unknown origin) to IC50 for CXCR4 in human CCRF-CEM cells. In kind it is cell-based.
Data set [12] is filed under the species Homo sapiens. Description: Therapeutic index, ratio of IC50 for nAChR alpha1 (unknown origin) to IC50 for CXCR4 in human CCRF-CEM cells. In kind it is cell-based.

The source made the active and inactive calls. The rule behind the calls is not given here.

Chain of Acetylcholine receptor subunit alpha (P02708 whole entry): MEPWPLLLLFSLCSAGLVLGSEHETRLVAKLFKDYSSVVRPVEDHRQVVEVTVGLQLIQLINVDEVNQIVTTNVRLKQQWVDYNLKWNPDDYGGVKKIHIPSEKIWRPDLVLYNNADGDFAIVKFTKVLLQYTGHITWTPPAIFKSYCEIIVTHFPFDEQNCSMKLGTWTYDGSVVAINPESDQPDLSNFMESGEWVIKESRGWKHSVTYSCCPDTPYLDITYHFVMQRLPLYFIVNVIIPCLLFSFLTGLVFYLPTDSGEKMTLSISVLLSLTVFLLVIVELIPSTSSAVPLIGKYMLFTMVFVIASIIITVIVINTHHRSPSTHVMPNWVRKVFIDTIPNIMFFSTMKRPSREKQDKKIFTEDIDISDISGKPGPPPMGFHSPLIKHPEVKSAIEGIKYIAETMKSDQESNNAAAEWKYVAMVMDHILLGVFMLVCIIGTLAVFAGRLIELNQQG
Chain of Cytochrome P450 3A4 (P08684 whole entry): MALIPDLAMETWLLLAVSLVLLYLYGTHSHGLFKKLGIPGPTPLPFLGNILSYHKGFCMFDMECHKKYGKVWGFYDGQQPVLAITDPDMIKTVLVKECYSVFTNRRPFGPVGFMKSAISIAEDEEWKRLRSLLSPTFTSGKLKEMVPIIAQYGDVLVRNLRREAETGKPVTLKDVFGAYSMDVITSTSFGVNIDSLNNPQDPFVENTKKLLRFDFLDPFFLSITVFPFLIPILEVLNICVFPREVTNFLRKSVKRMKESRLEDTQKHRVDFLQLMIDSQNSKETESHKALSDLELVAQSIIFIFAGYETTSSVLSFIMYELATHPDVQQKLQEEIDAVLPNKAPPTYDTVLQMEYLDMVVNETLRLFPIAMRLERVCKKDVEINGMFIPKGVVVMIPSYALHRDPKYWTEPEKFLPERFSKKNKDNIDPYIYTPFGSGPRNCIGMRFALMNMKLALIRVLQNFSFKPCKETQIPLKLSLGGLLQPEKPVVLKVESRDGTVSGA
Chain of Mu-type opioid receptor (P35372 whole entry): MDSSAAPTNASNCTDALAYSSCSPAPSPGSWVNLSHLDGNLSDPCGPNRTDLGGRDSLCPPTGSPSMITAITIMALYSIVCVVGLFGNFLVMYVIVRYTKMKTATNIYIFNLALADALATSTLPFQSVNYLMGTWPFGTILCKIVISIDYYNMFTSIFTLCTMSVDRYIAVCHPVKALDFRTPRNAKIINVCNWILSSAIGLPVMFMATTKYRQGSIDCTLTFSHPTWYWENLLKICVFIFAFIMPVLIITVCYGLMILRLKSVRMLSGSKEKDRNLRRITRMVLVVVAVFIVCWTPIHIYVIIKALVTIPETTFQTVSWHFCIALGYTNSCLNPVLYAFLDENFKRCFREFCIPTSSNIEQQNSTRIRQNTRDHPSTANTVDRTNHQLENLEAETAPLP
Chain of Acetylcholinesterase (P22303 whole entry): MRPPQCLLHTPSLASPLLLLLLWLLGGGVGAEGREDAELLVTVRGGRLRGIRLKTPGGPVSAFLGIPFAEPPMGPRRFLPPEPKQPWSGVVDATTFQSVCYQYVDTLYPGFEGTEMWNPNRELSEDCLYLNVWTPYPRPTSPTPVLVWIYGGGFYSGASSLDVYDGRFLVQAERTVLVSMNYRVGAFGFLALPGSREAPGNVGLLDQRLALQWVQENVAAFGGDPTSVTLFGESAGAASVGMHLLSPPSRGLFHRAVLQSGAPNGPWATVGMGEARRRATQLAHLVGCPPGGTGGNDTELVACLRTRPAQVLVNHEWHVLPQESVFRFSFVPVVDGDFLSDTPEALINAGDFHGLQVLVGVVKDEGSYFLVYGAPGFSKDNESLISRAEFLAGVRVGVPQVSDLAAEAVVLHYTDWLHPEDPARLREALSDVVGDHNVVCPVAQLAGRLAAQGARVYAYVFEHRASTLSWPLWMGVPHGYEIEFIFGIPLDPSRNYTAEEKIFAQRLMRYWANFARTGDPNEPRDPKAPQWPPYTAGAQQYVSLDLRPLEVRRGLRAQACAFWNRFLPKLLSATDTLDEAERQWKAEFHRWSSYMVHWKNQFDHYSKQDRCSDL
T1 sequence (P61073 whole entry): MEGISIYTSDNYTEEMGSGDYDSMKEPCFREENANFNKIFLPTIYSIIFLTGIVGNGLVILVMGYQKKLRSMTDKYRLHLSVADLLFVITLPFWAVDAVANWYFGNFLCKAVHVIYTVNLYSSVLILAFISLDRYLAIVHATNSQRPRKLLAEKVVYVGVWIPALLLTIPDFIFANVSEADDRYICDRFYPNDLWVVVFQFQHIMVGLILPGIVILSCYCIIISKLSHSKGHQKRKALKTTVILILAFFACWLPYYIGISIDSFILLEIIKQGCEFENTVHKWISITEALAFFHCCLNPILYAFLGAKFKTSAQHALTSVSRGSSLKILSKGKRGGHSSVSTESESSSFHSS
Chain of Cytochrome P450 2D6 (P10635 whole entry): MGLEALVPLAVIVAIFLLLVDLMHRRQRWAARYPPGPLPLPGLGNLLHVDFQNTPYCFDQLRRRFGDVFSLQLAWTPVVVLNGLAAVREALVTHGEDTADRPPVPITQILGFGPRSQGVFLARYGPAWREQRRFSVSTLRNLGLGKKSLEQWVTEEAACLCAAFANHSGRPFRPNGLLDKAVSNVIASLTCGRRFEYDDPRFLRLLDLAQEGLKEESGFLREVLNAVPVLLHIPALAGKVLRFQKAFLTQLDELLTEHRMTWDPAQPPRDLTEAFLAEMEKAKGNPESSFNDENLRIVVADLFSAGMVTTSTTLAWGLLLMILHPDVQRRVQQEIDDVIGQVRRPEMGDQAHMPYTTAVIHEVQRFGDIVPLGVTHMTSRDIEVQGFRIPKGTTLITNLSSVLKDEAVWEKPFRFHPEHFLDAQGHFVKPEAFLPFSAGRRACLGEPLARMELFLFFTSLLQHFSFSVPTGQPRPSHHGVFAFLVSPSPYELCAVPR
Description for Cytochrome P450 2D6: Inhibition of recombinant human CYP2D6 expressed in insect cell microsomes using AMMC as substrate pretreated for 30 mins followed by NADPH addition measured after 45 mins by fluorescence assay
Description for in vitro: Permeability of the compound at pH 7.4 after 4 hrs by PAMPA

For `NCCCCN(C[C@H]1Cc2ccccc2CN1)[C@H]1CCCc2cccnc21`, in [1], the result was inactive. For the same compound, the half-inhibitory concentration (IC50) in [2] was 3.7 µM; against Mu-type opioid receptor, 14.9 µM; in data set [3] it was greater than 30 µM; at Acetylcholinesterase, greater than 30 µM.

On to `c1ccc2c(c1)CN[C@@H](CN(CCN1CCNCC1)[C@H]1CCCc3cccnc31)C2`, for which the amount remaining at 10 min, 0.5 µM in data set [4] was determined as 96%; in data set [7], 62%; in data set [8], 79%. Moreover, the outcome in data set [1] was inactive. For the same compound, the IC50 in data set [5] is 0.553 µM; in data set [6] it was greater than 14 µM; against Cytochrome P450 3A4, greater than 12 µM; at Cytochrome P450 2D6, 4.21 µM. The Ratio IC50 in the data set listed under Homo sapiens [9] is less than 100. This compound came in with a Papp at 4 h in “in vitro” of 1 ×10⁻⁶ cm/s.

Take `c1ccc2c(c1)CN[C@@H](CN(CC[C@H]1CCCNC1)[C@H]1CCCc3cccnc31)C2`: the figures for the amount remaining at 10 min, 0.5 µM in data set [4], in data set [7] and in data set [8] were 93%, 55% and 56%, respectively. Also, the result in data set [1] was inactive. In addition, the IC50 was 0.016 µM in data set [5]; greater than 14 µM in data set [6]; greater than 12 µM against Cytochrome P450 3A4; 5.9 µM in data set [2]; 11.3 µM against Mu-type opioid receptor; 11.3 µM in [3]. For the same compound, the concentration for half-maximal inhibition (IC50) against Acetylcholinesterase turned out to be 10.7 µM; at Cytochrome P450 2D6 it was 0.11 µM. Further, the Ratio IC50 in the data set filed under Homo sapiens [10] is 100 to 1000; in the data set filed under Homo sapiens [11], 100 to 1000; in the data set filed under Homo sapiens [12] it was less than 100; in the data set filed under Homo sapiens [9] it was less than 100. For the same compound, the Papp at 4 h in the data set “in vitro” was 5.5 ×10⁻⁶ cm/s.

Regarding `c1ccc2c(c1)CN[C@@H](CN(CCCN1CCNCC1)[C@H]1CCCc3cccnc31)C2`, the share remaining at 10 min, 0.5 µM in [4] amounted to 100%; in [7], 100%; in data set [8], 92%. In data set [1], the result was inactive. Also, the IC50 in data set [5] is 0.017 µM; in data set [6], greater than 14 µM; on Cytochrome P450 3A4 it was greater than 12 µM; in data set [2], greater than 30 µM; against Mu-type opioid receptor, greater than 30 µM; in data set [3], greater than 30 µM. The values for the IC50 at Acetylcholinesterase and at Cytochrome P450 2D6 were greater than 30 µM and 2.14 µM, respectively. The Ratio IC50 in the data set filed under Homo sapiens [10], in the data set listed under Homo sapiens [11], in the data set listed under Homo sapiens [12] and in the data set listed under Homo sapiens [9] was less than 100 each time.

As for `c1ccc2c(c1)CN[C@@H](CN(CCCN1CCN(C3CC3)CC1)[C@H]1CCCc3cccnc31)C2`, the results for the amount remaining at 10 min, 0.5 µM in [4], in [7] and in data set [8] were 21%, 2% and 3%, respectively. Further, the outcome in data set [1] was inactive. The IC50 in data set [5] is 0.05 µM; in data set [6], greater than 17 µM; on Cytochrome P450 3A4, greater than 20 µM; against Cytochrome P450 2D6, 6.04 µM. The Papp at 4 h in the data set “in vitro” was determined as 50.5 ×10⁻⁶ cm/s.

In the case of `CCN1CCN(CCCN(C[C@H]2Cc3ccccc3CN2)[C@H]2CCCc3cccnc32)CC1`, the fraction remaining at 10 min, 0.5 µM in data set [4] came to 59%; in [7], 1%; in data set [8], 19%. Moreover, the result in data set [1] was inactive. Also, the IC50 is 0.033 µM in [5], greater than 17 µM in [6], greater than 20 µM against Cytochrome P450 3A4 and greater than 20 µM at Cytochrome P450 2D6. In “in vitro”, this compound displayed an apparent permeability (Papp) at 4 h of 31.7 ×10⁻⁶ cm/s.

What is called IC50 is the point on the concentration scale where inhibition reaches its midpoint. As a reminder, the share remaining is what is left of the initial amount, in per cent. By Papp is commonly meant a coefficient for how fast a substance crosses the barrier.

The record behind these values is ChEMBL document CHEMBL4145594, “Discovery of N-Alkyl Piperazine Side Chain Based CXCR4 Antagonists with Improved Drug-like Properties” (ACS Med Chem Lett, 2018).
